Target: AMPK
Test: AMPK activation, enzyme-linked immunosorbent assay
Format: biochemical
Settings: EC50 for AMPK activation, ELISA
How it was run: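 Compounds were tested for their capacity to activate the kinase using standard, commercially available kit reagents and procedures.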

SMILES	EC50
O=C(N[C@@H]1CCN(Cc2ccncc2)C[C@@H]1F)c1ccc(C(=O)N2CCN(Cc3ccc(F)cc3)CC2)cn1 (relative stereo) [Compound 104, N-(cis-3-fluoro-1-(pyridin-4-ylmethyl)piperidin-4-yl)-5-(4-(4-fluorobenzyl)piperazine-1-carbonyl)picolinamide]	< 0.5 µM
COc1ccc(OC2CCN(C(=O)c3ccc(C(=O)NC4CCN(Cc5cc(F)cc(F)c5)CC4)nc3)CC2)cc1 [Compound 296, N-(1-(3,5-difluorobenzyl)piperidin-4-yl)-5-(4-(4-methoxyphenoxy)piperidine-1-carbonyl)picolinamide]	< 0.5 µM
N#Cc1ccc(CN2CCC(NC(=O)c3ccc(C(=O)N4CC(Oc5ccc(C#N)cc5)C4)cn3)CC2)cc1 [Compound 209, N-(1-(4-cyanobenzyl)piperidin-4-yl)-5-(3-(4-cyanophenoxy)azetidine-1-carbonyl)picolinamide]	< 0.5 µM
CS(=O)(=O)c1ccc(CN2CCC(NC(=O)c3ccc(C(=O)N4CCC(Oc5ccc(C#N)cc5)CC4)nc3)CC2)cc1 [Compound 214, 6-(4-(4-cyanophenoxy)piperidine-1-carbonyl)-N-(1-(4-(methylsulfonyl)benzyl)piperidin-4-yl)nicotinamide]	> 10 µM
COc1ccc(C(=O)C2CCN(c3ccc(C(=O)NC4CCN(Cc5ccc(C#N)cc5)CC4)nn3)CC2)cc1 [Compound 362, N-(1-(4-cyanobenzyl)piperidin-4-yl)-6-(4-(4-methoxybenzoyl)piperidin-1-yl)pyridazine-3-carboxamide]	< 0.5 µM
COc1ccc(CC2CCN(C(=O)c3ccc(C(=O)NC4CCN(Cc5ccc(C#N)cc5)CC4)nc3)CC2)cc1F [Compound 146, N-(1-(4-cyanobenzyl)piperidin-4-yl)-5-(4-(3-fluoro-4-methoxybenzyl)piperidine-1-carbonyl)picolinamide]	< 0.5 µM
COc1ccc(C(=O)N2CCN(C(=O)c3ccc(C(=O)NC4CCN(Cc5ccc(C#N)cc5)CC4)nc3)CC2)cc1 [Compound 77, N-(1-(4-cyanobenzyl)piperidin-4-yl)-5-(4-(4-methoxybenzoyl)piperazine-1-carbonyl)picolinamide]	< 0.5 µM
COc1ccc(C(=O)C2CCN(C(=O)c3ccc(C(=O)Nc4ccc(Oc5ccc(C(C)=O)cc5)nc4)cn3)CC2)cc1 [Compound 462, N-(6-(4-acetylphenoxy)pyridin-3-yl)-6-(4-(4-methoxybenzoyl)piperidine-1-carbonyl)nicotinamide]	< 0.5 µM
NC(=O)c1ccc(CN2CCC(NC(=O)c3ccc(C(=O)N4CCN(Cc5ccc(F)cc5)CC4)cn3)CC2)cc1 [Compound 201, N-(1-(4-carbamoylbenzyl)piperidin-4-yl)-5-(4-(4-fluorobenzyl)piperazine-1-carbonyl)picolinamide]	0.5 to 1 µM
N#Cc1ccc(CN2CCC(NC(=O)c3ccc(C(=O)N4CCC(Oc5ccc([N+](=O)[O-])cc5)CC4)nc3)CC2)cc1 [Compound 363, N-(1-(4-cyanobenzyl)piperidin-4-yl)-6-(4-(4-nitrophenoxy)piperidine-1-carbonyl)nicotinamide]	< 0.5 µM
CC1(C)CN(C(=O)c2ccc(C(=O)NC3CCN(Cc4ccc(C#N)cc4)CC3)nc2)CCN1Cc1ccc(F)cc1 [Compound 125, N-(1-(4-cyanobenzyl)piperidin-4-yl)-5-(4-(4-fluorobenzyl)-3,3-dimethylpiperazine-1-carbonyl)picolinamide]	< 0.5 µM
COc1ccc(OC2CCN(C(=O)c3ccc(C(=O)N[C@H]4CC[C@@H](Oc5ccc(C(F)(F)F)cc5)CC4)nc3)CC2)cc1 [Compound 191, 5-(4-(4-methoxyphenoxy)piperidine-1-carbonyl)-N-((cis)-4-(4-(trifluoromethyl)phenoxy)cyclohexyl) picolinamide]	< 0.5 µM
CS(=O)(=O)c1ccc(OC2CCN(C(=O)c3ccc(C(=O)NC4CCN(Cc5ccc(C#N)cc5)CC4)nn3)CC2)cc1 [Compound 399, N-(1-(4-cyanobenzyl)piperidin-4-yl)-6-(4-(4-(methylsulfonyl)phenoxy)piperidine-1-carbonyl)pyridazine-3-carboxamide]	< 0.5 µM
N#Cc1ccc(CN2CCC(NC(=O)c3ccc(NC4CCN(c5ccccc5)CC4)cn3)CC2)cc1 [Compound 126, N-(1-(4-cyanobenzyl)piperidin-4-yl)-5-(1-phenylpiperidin-4-ylamino)picolinamide]	< 0.5 µM
N#Cc1ccc(CN2CCC(C(=O)Nc3ccc(C(=O)N4CCC(Oc5ccc(F)cc5)CC4)cn3)CC2)cc1 [Compound 173, 1-(4-cyanobenzyl)-N-(5-(4-(4-fluorophenoxy)piperidine-1-carbonyl)pyridin-2-yl)piperidine-4-carboxamide]	< 0.5 µM
N#Cc1ccc(CN2CCC(NC(=O)c3ccc(-c4cn(Cc5ccccc5)nn4)cn3)CC2)cc1 [Compound 121, 5-(1-benzyl-1H-1,2,3-triazol-4-yl)-N-(1-(4-cyanobenzyl)piperidin-4-yl)picolinamide]	1 to 5 µM
N#Cc1ccc(OC2CCN(C(=O)c3ccc(C(=O)N[C@H]4CC[C@@H](Oc5ccc(F)cc5)CC4)nc3)CC2)cc1 [Compound 303, 5-(4-(4-cyanophenoxy)piperidine-1-carbonyl)-N-((cis)-4-(4-fluorophenoxy)cyclohexyl)picolinamide]	< 0.5 µM

SMILES	EC50
COc1ccc(OC2CCN(C(=O)c3ccc(C(=O)NC4CCN(Cc5ccc(C#N)cc5)CC4)cn3)CC2)c(N(C)C)c1 [Compound 385, N-(1-(4-cyanobenzyl)piperidin-4-yl)-6-(4-(2-(dimethylamino)-4-methoxyphenoxy)piperidine-1-carbonyl)nicotinamide]	> 10 µM
CS(=O)(=O)c1ccc(C(=O)C2CCN(C(=O)c3ccc(C(=O)NC4CCN(Cc5ccc(F)cc5)CC4)cn3)CC2)cc1 [Compound 222, N-(1-(4-fluorobenzyl)piperidin-4-yl)-6-(4-(4-(methylsulfonyl)benzoyl)piperidine-1-carbonyl)nicotinamide]	1 to 5 µM
COc1cccc(CC2CCN(C(=O)c3ccc(C(=O)NC4CCN(Cc5ccc(C#N)cc5)CC4)nc3)CC2)c1 [Compound 147, N-(1-(4-cyanobenzyl)piperidin-4-yl)-5-(4-(3-methoxybenzyl)piperidine-1-carbonyl)picolinamide]	< 0.5 µM
N#Cc1ccc(CN2CCC(NC(=O)c3ccc(C(=O)N4CCC(C(=O)c5ccc(N=[N+]=[N-])cc5)CC4)nc3)CC2)cc1 [Compound 240, 6-(4-(4-azidobenzoyl)piperidine-1-carbonyl)-N-(1-(4-cyanobenzyl)piperidin-4-yl)nicotinamide]	< 0.5 µM
N#Cc1ccc(CN2CCC(NC(=O)c3ccc(C(=O)N4CCC(C(=O)c5ccc(Cl)cc5)CC4)cn3)CC2)cc1 [Compound 154, 5-(4-(4-chlorobenzoyl)piperidine-1-carbonyl)-N-(1-(4-cyanobenzyl)piperidin-4-yl)picolinamide]	< 0.5 µM
COc1ccc(CN2CCC(NC(=O)c3ccc(C(=O)N4CCC(S(=O)(=O)c5ccc(F)cc5)CC4)nc3)CC2)cc1 [Compound 474, 6-(4-(4-fluorophenylsulfonyl)piperidine-1-carbonyl)-N-(1-(4-methoxybenzyl)piperidin-4-yl)nicotinamide]	1 to 5 µM
N#Cc1ccc(CN2CCC(NC(=O)c3ccc(C(=O)N4CCC(C(=O)c5ccc(N6CCCC6)cc5)CC4)cn3)CC2)cc1 [Compound 365, N-(1-(4-cyanobenzyl)piperidin-4-yl)-5-(4-(4-(pyrrolidin-1-yl)benzoyl)piperidine-1-carbonyl)picolinamide]	< 0.5 µM
CN1CCN(c2ccc(C(=O)C3CCN(C(=O)c4cnc(C(=O)NC5CCN(Cc6ccc(C#N)cc6)CC5)cn4)CC3)cc2)CC1 [Compound 220, N-(1-(4-cyanobenzyl)piperidin-4-yl)-5-(4-(4-(4-methylpiperazin-1-yl)benzoyl)piperidine-1-carbonyl)pyrazine-2-carboxamide]	< 0.5 µM
N#Cc1ccc(C(=O)N2CCC(NC(=O)c3ccc(C(=O)N4CCN(Cc5ccc(F)cc5)CC4)cn3)CC2)cc1 [Compound 4, N-(1-(4-cyanobenzoyl)piperidin-4-yl)-5-(4-(4-fluorobenzyl)piperazine-1-carbonyl)picolinamide]	0.5 to 1 µM
COc1ccc(C(=O)C2CCN(C(=O)c3ccc(C(=O)NC4CCN(Cc5ccc(F)cc5)CC4)cn3)CC2)cc1 [Compound 317, N-(1-(4-fluorobenzyl)piperidin-4-yl)-6-(4-(4-methoxybenzoyl)piperidine-1-carbonyl)nicotinamide]	< 0.5 µM
N#Cc1ccc(CN2CCC(NC(=O)c3ccc(NC4CCN(c5ccc(F)cc5)CC4)cn3)CC2)cc1 [Compound 276, N-(1-(4-cyanobenzyl)piperidin-4-yl)-5-(1-(4-fluorophenyl)piperidin-4-ylamino)picolinamide]	< 0.5 µM
N#Cc1ccc(CN2CCC(NC(=O)c3ccc(Nc4ccc(-c5ccccc5)cc4)cn3)CC2)cc1 [Compound 109, 5-(biphenyl-4-ylamino)-N-(1-(4-cyanobenzyl)piperidin-4-yl)picolinamide]	5 to 10 µM
N#Cc1ccc(OC2CCN(C(=O)c3ccc(C(=O)N[C@H]4CC[C@@H](Oc5ccc(C(F)(F)F)cc5)CC4)nc3)CC2)cc1 [Compound 193, 5-(4-(4-cyanophenoxy)piperidine-1-carbonyl)-N-((cis)-4-(4-(trifluoromethyl)phenoxy)cyclohexyl) picolinamide]	< 0.5 µM
N#Cc1ccc(CN2CCC(NC(=O)c3ccc(C(=O)N4CC(OCc5ccc(F)cc5)C4)cn3)CC2)cc1 [Compound 307, N-(1-(4-cyanobenzyl)piperidin-4-yl)-5-(3-(4-fluorobenzyloxy)azetidine-1-carbonyl)picolinamide]	0.5 to 1 µM
N#Cc1ccc(CN2CCC(NC(=O)c3ccc(C(=O)N4CCC(Oc5ccc(NC(=O)C6CC6)cc5)CC4)nc3)CC2)cc1 [Compound 409, N-(1-(4-cyanobenzyl)piperidin-4-yl)-6-(4-(4-(cyclopropane-carboxamido)phenoxy)piperidine-1-carbonyl)nicotinamide]	< 0.5 µM
N#Cc1ccc(CN2CCC(NC(=O)c3ccc(C(=O)N4CCC(Oc5ccc(NS(=O)(=O)C6CC6)cc5)CC4)nc3)CC2)cc1 [Compound 448, N-(1-(4-cyanobenzyl)piperidin-4-yl)-6-(4-(4-(cyclopropanesulfonamido)phenoxy)piperidine-1-carbonyl)nicotinamide]	1 to 5 µM

From US9663496B2, “AMPK-activating heterocyclic compounds and methods for using the same” (Rigel Pharmaceuticals, Inc., priority 2010, dated 2017)
